{
  "source": "patent US7572616B2",
  "about": "“Alternative oxidase and uses thereof” (priority 2005, dated 2009)",
  "key": {"[1]": {"test_system": "Drosophila mitochondria", "test": "Oxygen consumption of isolated mitochondrial suspensions from flies", "assay_type": "biochemical, Drosophila melanogaster", "conditions": "mitochondria from AOX-expressing flies"}, "[2]": {"test_system": "Flp-In™ T-REx™-293 cells", "assay_type": "cell-based, human"}, "[3]": {"test_system": "Flp-In™ T-REx™-293 cells", "test": "Succinate oxidation by digitonin permeabilized cells, Clark oxygen electrode", "assay_type": "cell-based, human", "conditions": "AOX-expressing cells, 100 μM propyl gallate added after cyanide"}},
  "data": [
    {"smiles": "CCCOC(=O)c1cc(O)c(O)c(O)c1", "note": "[n-propyl gallate]", "values": [
      {"measurement": "sensitivity of residual cyanide-insensitive respiratory activity to AOX inhibitors", "setting": "[1]; cyanide present", "result": "sensitive"},
      {"measurement": "effect of AOX inhibitors on respiration when cyanide absent", "setting": "[1]; no cyanide", "result": "only a small effect"},
      {"measurement": "inhibition of residual cyanide-insensitive respiration", "setting": "[2]", "result": "completely inhibited"},
      {"measurement": "inhibition of respiration in the presence of cyanide", "setting": "[2]", "result": "almost completely inhibited"},
      {"measurement": "inhibition of cyanide-resistant succinate oxidation", "setting": "[3]", "result": "fully inhibited"}
    ]}
  ]
}
